The values below come from patent publication US20240139211A1, “METHODS AND COMPOSITIONS FOR TREATING AMYOTROPHIC LATERAL SCLEROSIS” (Amylyx Pharmaceuticals, Inc., priority 2022, published 2024).

Read-outs that look alike come from different tables or passages of the source. Bounds are passed on as bounds.

Series [1] concerns the target T1, OAT1 (Homo sapiens, UniProt Q4U2R8).
T1 sequence (Q4U2R8 1-563): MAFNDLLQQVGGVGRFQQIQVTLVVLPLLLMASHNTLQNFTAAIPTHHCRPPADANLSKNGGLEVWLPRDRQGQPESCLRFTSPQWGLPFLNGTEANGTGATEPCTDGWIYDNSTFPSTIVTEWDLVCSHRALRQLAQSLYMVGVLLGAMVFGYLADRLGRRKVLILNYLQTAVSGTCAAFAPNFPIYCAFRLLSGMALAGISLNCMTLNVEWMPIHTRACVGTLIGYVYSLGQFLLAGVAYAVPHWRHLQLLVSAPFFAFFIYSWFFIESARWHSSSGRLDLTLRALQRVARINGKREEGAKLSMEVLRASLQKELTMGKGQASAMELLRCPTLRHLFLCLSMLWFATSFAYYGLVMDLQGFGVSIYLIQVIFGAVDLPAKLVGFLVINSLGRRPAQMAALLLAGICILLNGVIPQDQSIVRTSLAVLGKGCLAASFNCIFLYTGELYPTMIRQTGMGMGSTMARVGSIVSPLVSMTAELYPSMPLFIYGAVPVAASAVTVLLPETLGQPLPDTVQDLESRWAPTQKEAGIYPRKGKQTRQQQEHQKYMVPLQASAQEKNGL
Briefly: Inhibitor of OAT1, probe substrate uptake. The settings on record: for Inhibition of OAT1 / Inhibitor of OAT1: two concentrations per test article; for potency estimated from few doses: read-out: Estimated IC50, OAT1.

Series [2] deals with T2, OAT3 (Homo sapiens, UniProt Q8TCC7).
T2 sequence (Q8TCC7 1-542): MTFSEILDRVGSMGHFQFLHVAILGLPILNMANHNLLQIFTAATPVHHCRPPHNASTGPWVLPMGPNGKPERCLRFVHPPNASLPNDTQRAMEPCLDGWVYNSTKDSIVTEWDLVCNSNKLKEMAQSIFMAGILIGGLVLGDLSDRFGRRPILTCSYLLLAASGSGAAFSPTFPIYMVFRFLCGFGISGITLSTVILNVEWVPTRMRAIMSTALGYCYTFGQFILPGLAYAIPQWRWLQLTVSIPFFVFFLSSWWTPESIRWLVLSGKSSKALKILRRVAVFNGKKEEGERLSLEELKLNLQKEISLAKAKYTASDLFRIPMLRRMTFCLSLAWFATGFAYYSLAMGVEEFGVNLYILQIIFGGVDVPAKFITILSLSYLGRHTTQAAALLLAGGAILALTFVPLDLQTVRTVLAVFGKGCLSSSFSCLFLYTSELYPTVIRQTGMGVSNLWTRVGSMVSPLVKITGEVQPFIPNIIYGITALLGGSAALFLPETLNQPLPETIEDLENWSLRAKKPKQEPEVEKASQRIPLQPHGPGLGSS
Briefly: Inhibitor of OAT3, probe substrate uptake. To be noted: for potency estimated from few doses: read-out: Estimated IC50, OAT3; for Inhibition of OAT3 / Inhibitor of OAT3: two concentrations per test article.

For series [3], the target named is OATP1B3 (Homo sapiens, UniProt Q9NPD5). Briefly: Inhibitor of OATP1B3, probe substrate uptake. To be noted: for potency estimated from few doses: read-out: Estimated IC50, OATP1B3; for Inhibition of OATP1B3 / Inhibitor of OATP1B3: two concentrations per test article.
Series [4] deals with human hepatocytes. Description: Stability of test articles in hepatocyte cultures. The settings on record: two concentrations.
The subject of series [5] is CYP1A2 mRNA. Description: CYP1A2 gene expression induction in hepatocyte cultures. The settings on record: for Emax, CYP1A2 gene expression: Donor 1.
Series [6] deals with CYP3A4 mRNA. Briefly: CYP3A4 gene expression induction in hepatocyte cultures. To be noted: for Inducer of CYP3A4 (conclusion): gene expression and enzyme activity, three donors.
Series [7] has as its target MATE2K (Homo sapiens, UniProt Q86VL8). Description: Substrate of MATE2-K, uptake in HEK293 cells. The source says:
(§1) Vector-transfected HEK cells were used as a control.

For series [8], the target named is T3, OCT1 (Homo sapiens, UniProt O15245).
T3 sequence (O15245 1-554): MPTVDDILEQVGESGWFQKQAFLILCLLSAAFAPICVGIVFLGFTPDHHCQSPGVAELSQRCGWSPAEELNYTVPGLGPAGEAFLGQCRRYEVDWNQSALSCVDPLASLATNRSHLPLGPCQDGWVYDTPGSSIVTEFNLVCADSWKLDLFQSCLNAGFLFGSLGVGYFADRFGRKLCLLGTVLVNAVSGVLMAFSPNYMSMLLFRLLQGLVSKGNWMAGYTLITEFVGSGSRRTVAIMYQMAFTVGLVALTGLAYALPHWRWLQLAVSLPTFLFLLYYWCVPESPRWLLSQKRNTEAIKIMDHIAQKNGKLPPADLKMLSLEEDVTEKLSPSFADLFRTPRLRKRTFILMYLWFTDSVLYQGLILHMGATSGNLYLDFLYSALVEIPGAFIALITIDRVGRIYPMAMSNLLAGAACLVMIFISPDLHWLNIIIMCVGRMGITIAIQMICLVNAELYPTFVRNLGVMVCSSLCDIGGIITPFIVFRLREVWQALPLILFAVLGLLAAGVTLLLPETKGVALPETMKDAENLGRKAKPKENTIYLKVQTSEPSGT
Description: Substrate of OCT1, uptake in HEK293 cells.
Description: as §1

For series [9], the target named is T4, OCT2 (Homo sapiens, UniProt O15244).
T4 sequence (O15244 1-555): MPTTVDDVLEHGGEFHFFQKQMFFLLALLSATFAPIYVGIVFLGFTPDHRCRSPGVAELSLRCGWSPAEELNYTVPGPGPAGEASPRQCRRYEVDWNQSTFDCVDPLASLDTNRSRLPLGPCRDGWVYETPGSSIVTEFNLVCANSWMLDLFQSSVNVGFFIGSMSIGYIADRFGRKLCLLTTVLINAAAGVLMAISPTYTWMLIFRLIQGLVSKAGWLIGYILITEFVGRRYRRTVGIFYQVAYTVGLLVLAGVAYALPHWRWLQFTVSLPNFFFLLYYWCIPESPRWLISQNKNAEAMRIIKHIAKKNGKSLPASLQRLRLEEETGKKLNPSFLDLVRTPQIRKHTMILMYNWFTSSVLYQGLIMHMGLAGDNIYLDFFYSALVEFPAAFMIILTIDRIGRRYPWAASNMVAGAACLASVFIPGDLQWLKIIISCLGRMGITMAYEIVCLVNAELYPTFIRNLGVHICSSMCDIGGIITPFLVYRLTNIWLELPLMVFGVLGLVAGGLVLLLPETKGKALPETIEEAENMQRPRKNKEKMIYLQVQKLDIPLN
Description: Substrate of OCT2, uptake in HEK293 cells.
Description: as §1

[10] abbreviates: estimated from two concentrations.

MATE2K, sequence (Q86VL8 1-566 isoform Q86VL8-3): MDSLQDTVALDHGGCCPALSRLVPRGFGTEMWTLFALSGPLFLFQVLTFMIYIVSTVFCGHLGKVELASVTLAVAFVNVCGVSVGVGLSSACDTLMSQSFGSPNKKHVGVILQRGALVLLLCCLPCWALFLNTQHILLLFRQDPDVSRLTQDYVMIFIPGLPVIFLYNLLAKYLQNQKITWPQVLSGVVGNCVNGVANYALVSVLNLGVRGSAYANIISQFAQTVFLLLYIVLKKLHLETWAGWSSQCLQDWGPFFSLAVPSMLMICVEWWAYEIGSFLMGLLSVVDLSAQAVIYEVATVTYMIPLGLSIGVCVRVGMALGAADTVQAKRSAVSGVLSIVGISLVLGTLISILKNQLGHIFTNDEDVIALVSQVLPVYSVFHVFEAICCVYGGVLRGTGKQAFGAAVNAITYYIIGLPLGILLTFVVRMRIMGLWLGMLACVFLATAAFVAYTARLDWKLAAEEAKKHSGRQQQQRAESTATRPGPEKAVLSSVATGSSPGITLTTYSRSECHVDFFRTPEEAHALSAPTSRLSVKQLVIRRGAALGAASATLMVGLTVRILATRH
OATP1B3, sequence (Q9NPD5 whole entry): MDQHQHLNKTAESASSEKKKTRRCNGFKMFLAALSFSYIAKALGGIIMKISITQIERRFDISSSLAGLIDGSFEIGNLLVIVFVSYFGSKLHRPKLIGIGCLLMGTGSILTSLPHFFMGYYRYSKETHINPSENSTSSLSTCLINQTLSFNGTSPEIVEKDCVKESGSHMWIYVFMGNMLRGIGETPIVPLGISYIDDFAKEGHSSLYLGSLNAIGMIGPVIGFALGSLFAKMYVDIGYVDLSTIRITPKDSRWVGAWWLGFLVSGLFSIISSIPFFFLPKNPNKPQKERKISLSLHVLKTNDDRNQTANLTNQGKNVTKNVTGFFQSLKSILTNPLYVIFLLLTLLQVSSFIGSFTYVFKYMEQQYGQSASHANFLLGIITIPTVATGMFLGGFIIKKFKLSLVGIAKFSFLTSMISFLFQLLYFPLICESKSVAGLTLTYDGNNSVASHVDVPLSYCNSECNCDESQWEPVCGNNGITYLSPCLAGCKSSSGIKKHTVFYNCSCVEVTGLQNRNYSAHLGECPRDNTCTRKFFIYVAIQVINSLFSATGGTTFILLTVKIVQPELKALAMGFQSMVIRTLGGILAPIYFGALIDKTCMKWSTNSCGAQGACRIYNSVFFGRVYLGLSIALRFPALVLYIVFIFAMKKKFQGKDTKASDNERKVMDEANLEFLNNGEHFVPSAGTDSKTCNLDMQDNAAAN

With `C[C@H](CCC(=O)NCC(=O)O)[C@H]1CC[C@H]2[C@@H]3[C@@H](O)C[C@@H]4C[C@H](O)CC[C@]4(C)[C@H]3CC[C@]12C` [Glycoursodeoxycholic acid, glycoursodeoxycholic acid], the “Inhibition of OAT1” value in series [1] was “did not inhibit”. In series [1], the “Inhibitor of OAT1” value is “No”. In series [2] (100 μM), the “Uptake activity remaining, OAT3” value is given as 24.5%. The potency estimated from few doses in series [2] (setting [10]) and in series [3] (setting [10]) was below 100 µM each time. For the same compound, the “Inhibition of OAT3” value in series [2] is listed as “inhibited”. For the same compound, the “Inhibitor of OAT3” value in series [2] is reported as “Yes”. In addition, the “Uptake activity remaining, OATP1B3” value in series [3] (100 μM) stood at 10.6%. Besides, the “Inhibition of OATP1B3” value in series [3] is “inhibited”. In series [3], the “Inhibitor of OATP1B3” value is listed as “Yes”. For the same compound, the “% of time zero remaining in hepatocyte cultures” value (shortened to “% of time zero remaining”) in [4] (1 hour) is recorded as at most 88.8%; in [4] (4 hours), at most 75.4%; in [4] (24 hours), at most 34.7%. Further, in [5], the “Emax, CYP1A2 gene expression” value is on record as 11.7 fold. The “Maximum fold induction of CYP1A2 gene expression” value in series [5] (Donor 2) turned out to be 13.0 fold; in series [5] (Donor 3), 7.83 fold. The “Inducer of CYP1A2 (conclusion)” value in series [5] (gene expression and enzyme activity, three donors) is “as an inducer”. In addition, the “Maximum fold induction of CYP3A4 gene expression” value in [6] (Donor 2) is listed as 3.40 fold; in series [6] (Donor 3) it was 3.30 fold. Further, the “Inducer of CYP3A4 (conclusion)” value in [6] is reported as “did not meet the classification requirements to be identified as an inducer of CYP3A4”.
As for `O=C(O)CCCc1ccccc1` [PB, sodium phenylbutyrate], in [7] (human, 2 min), the “Decrease of MATE2-K uptake by known inhibitor” value was above 25% and the “Uptake in MATE2-K cells” value came out at 27.5 pmol/minute/mg protein. In addition, the “Uptake activity remaining, OAT1” value in series [1] (25 μM) is listed as 21.1%. For the same compound, in [1] (setting [10]), the potency estimated from few doses is below 25 µM. Further, in series [1], the “Inhibition of OAT1” value is given as “inhibited” and the “Inhibitor of OAT1” value is “Yes”. Also, the “Uptake activity remaining, OAT3” value in series [2] (25 μM) was determined as 44.3%. Also, in [2] (setting [10]), the potency estimated from few doses is below 25 µM. Further, in [2], the “Inhibition of OAT3” value is recorded as “inhibited” and the “Inhibitor of OAT3” value is reported as “Yes”. In series [3], the “Inhibition of OATP1B3” value was “did not inhibit” and the “Inhibitor of OATP1B3” value is “No”. The “% of time zero remaining” value in series [4] (1 hour) was at most 84.0%. The “% of time zero remaining” value in series [4] (4 hours) is at most 60.7%. Besides, in [4] (24 hours), the “% of time zero remaining” value is 0%.
In the case of `O=C(O)Cc1ccccc1` [Phenylacetic acid, phenylacetic acid], the “Substrate of OCT1” value in [8] (1 and 10 μM) is “not a substrate”. Moreover, the “Substrate of OCT1” value in series [8] (test article 1 and 10 μM) is “No”. Further, the “Substrate of OCT2” value in [9] (1 and 10 μM) was “not a substrate”. Also, in [9] (test article 1 and 10 μM), the “Substrate of OCT2” value is “No”. In series [7] (10 μM), the “Net MATE2-K uptake remaining with inhibitor” value is listed as 64.1% and the “Uptake in MATE2-K cells” value was determined as 84.2 pmol/min/mg. Besides, in series [7] (1 and 10 μM), the “Substrate of MATE2-K” value is “identified as a substrate”. For the same compound, the “Substrate of MATE2-K” value in series [7] (test article 1 and 10 μM) is on record as “Yes”. In addition, the “Uptake activity remaining, OAT1” value in [1] (750 μM) was determined as 35.2%. Further, the potency estimated from few doses in series [1] (setting [10]) is below 750 µM. In series [1], the “Inhibition of OAT1” value is reported as “inhibited” and the “Inhibitor of OAT1” value is “Yes”. Further, in series [2], the “Inhibition of OAT3” value is given as “did not inhibit” and the “Inhibitor of OAT3” value is listed as “No”. Moreover, in [3], the “Inhibition of OATP1B3” value is recorded as “did not inhibit” and the “Inhibitor of OATP1B3” value is reported as “No”. In addition, the “% of time zero remaining” value in [4] (4 hours) is at most 75.9%. Further, the “% of time zero remaining” value in [4] (24 hours) is at most 2.31%. In series [5], the “Emax, CYP1A2 gene expression” value came out at 3.32 fold. The “Inducer of CYP3A4 (conclusion)” value in [6] is on record as “do not identify phenylacetic acid as an inducer of CYP3A4”.
For the compound ursodeoxycholic acid, the “Substrate of OCT1” value in series [8] (1 and 10 μM) is reported as “not a substrate”; in series [8] (test article 1 and 10 μM) it was “No”. Moreover, the “Substrate of OCT2” value in series [9] (1 and 10 μM) is “not a substrate”; in series [9] (test article 1 and 10 μM) it was “No”. Besides, the “Substrate of MATE2-K” value in series [7] (1 and 10 μM) is on record as “not a substrate”; in [7] (test article 1 and 10 μM) it was “No”. The potency estimated from few doses in [1] (setting [10]) was below 500 µM; in series [1] (estimated from two doses), below 500 µM; in series [2] (setting [10]), below 50 µM; in series [2] (estimated from two doses), below 50 µM; in series [3] (setting [10]), below 50 µM; in series [3] (estimated from two doses) it was below 50 µM. Also, in series [1], the “Inhibition of OAT1” value was “inhibited”. The “Inhibitor of OAT1” value in series [1] is “Yes”. In series [2] (50 μM), the “Uptake activity remaining, OAT3” value was 27.6%. The “Inhibition of OAT3” value in [2] is recorded as “inhibited”. Also, the “Inhibitor of OAT3” value in [2] is “Yes”. Further, the “Uptake activity remaining, OATP1B3” value in [3] (50 μM) is 545.1%; in [3] (500 μM), “no uptake activity remaining”. In addition, in series [3], the “Inhibition of OATP1B3” value is on record as “inhibited”. Moreover, the “Inhibitor of OATP1B3” value in series [3] is “Yes”. For the same compound, the “% of time zero remaining” value is given as at most 93.1% in series [4] (1 hour), at most 61.0% in series [4] (4 hours) and at most 2.35% in [4] (24 hours).
